Read-outs that look alike come from different tables or passages of the source.

Data set [1] deals with reserpine-induced blepharospasm. Kind of data set: antagonism to reserpine-induced blepharospasm. The settings on record: Mus musculus, po, 3 h, read-out: Reserpine antagonism, Blepharospasm (ED50). It counts as in vivo, male mice. The method, then:
(§1) The tests were performed in an air-conditioned room at the constant temperature of 19°±1° C. Randomized groups of male mice were respectively treated by gavage with appropriate screening doses (from a maximum of 25 mg/kg below) of the test compounds, suspended in the vehicle (Methocel 0.5%; 1 ml/100 g b.w.), or with the vehicle alone.
(§2) One hour later the animals received an i.p. injection of reserpine (1.5 mg/kg; 1 ml/100 g b.w.), and one of the control groups the same volume of the vehicle alone (blank controls). Three hours after pretreatments, i.e. two hours after reserpine or vehicle treatments, blepharospasm was evaluated in scores as proposed by RUBIN et al. (J. Pharmacol., 120:125, 1957).

Data set [2] has as its system reserpine-induced hypothermia. Description: antagonism to reserpine-induced hypothermia. Format: in vivo. Particulars: Mus musculus, po; gavage 1 h before reserpine 1.5 mg/kg i.p.; rectal temperature 2 h after blepharospasm evaluation; male mice. Here is the method: as §1, §2
Two hours after the above-mentioned evaluation the rectal temperature of the animals was recorded by an appropriate probe connected to a digital thermometer (ELLAB DU-3).

A short description of data set [3]: orientative acute toxicity (7 days observation, Irwin's observational assessment of mouse behavior). The settings on record: mouse, in vivo, po.
The subject of data set [4] is central amphetamine-induced hypothermia. Description: antagonism to central amphetamine-induced hypothermia. Particulars: Mus musculus, po, read-out: Amphetamine antagonism (ED50).
For another data set, the system named is mouse. Description: orientative acute toxicity (7 days observation, Irwin's observational assessment of mouse behavior). Particulars: in mice; imipramine compared with title compounds.

Turning to `CN1C[C@H](COC2=CC(=O)CC2)C[C@@H]2c3cccc4[nH]c(Cl)c(c34)C[C@H]21` [355/1335, 2-Chloro-6-methyl-8-[(2-cyclopentenon)-3-oxymethyl]-ergoline], the ED50 (in general, the dose at which the effect has come halfway, by size or by number of responders) in data set [1] was determined as 0.2 mg/kg; in data set [2] it was 0.3 mg/kg. The LD50 (in general, the dose at which mortality reaches 50%) at 168 h in data set [3] was determined as 200 mg/kg.

For the molecule `CC(=CC#N)OC[C@@H]1C[C@@H]2c3cccc4[nH]cc(c34)C[C@H]2N(C)C1` [355/1311, 6-Methyl-8-[(3-methylacrylic nitrile)-3-oxymethyl]-ergoline], the figures for the ED50 in data set [1] and in data set [2] were 1.5 mg/kg and 3.4 mg/kg, respectively. For the same molecule, the LD50 at 168 h in data set [3] is 300 mg/kg.

For `CSc1[nH]c2cccc3c2c1C[C@@H]1[C@@H]3C[C@@H](COC=CC(C)=O)CN1C` [355/1357, 2-Thiomethyl-6-methyl-8-[(3-buten-2-one)-4-oxymethyl]-ergoline], the ED50 in data set [4] was determined as 2.5 mg/kg. The molecule further showed an LD50 at 168 h in data set [3] of more than 300 mg/kg.

For `CN1C[C@H](CNC2=CC(=O)CC2)C[C@@H]2c3cccc4c3c(cn4C)C[C@H]21` [355/1295, 1,6-Dimethyl-8-[(2-cyclopentenon)-3-aminomethyl]-ergoline], the median effective dose (ED50) in data set [4] was determined as 1.8 mg/kg. In data set [3], the median lethal dose (LD50) at 168 h was more than 400 mg/kg.

Consider `Cc1[nH]c2cccc3c2c1C[C@@H]1[C@@H]3C[C@@H](COC2=CC(=O)CC2)CN1C` [355/1301, 2,6-Dimethyl-8-[(2-cyclopentenon)-3-oxymethyl]-ergoline], for which the ED50 came out at 0.46 mg/kg in data set [1] and 0.57 mg/kg in data set [2]. The molecule further showed a 50% lethal dose (LD50) at 168 h in data set [3] of 300 mg/kg.

Consider `CCCN1C[C@H](COC=CC(C)=O)C[C@@H]2c3cccc4[nH]cc(c34)C[C@H]21` [355/1363, 6-Propyl-8-[(3-buten-2-one)-4-oxymethyl]-ergoline], for which the 50% effective dose (ED50) in data set [4] was determined as 2.4 mg/kg. Further, the LD50 at 168 h in data set [3] was found to be 400 mg/kg.

In the case of `CO[C@]12C[C@@H](COC3=CC(=O)CC3)CN(C)[C@@H]1Cc1cn(C)c3cccc2c13` [355/1240, 1,6-Dimethyl-8-[(2-cyclopentenon)-3-oxymethyl]-10-methoxyergoline], in data set [4], the ED50 stood at 1.8 mg/kg. This molecule registered an LD50 at 168 h in data set [3] of 200 mg/kg.

As for `CC(=O)C=C(C)OC[C@@H]1C[C@@H]2c3cccc4[nH]cc(c34)C[C@H]2N(C)C1` [355/1171, 6-Methyl-3-[(3-buten-2-one-4-methyl)-4-oxymethyl]-ergoline], in data set [4], the median effective dose (ED50) came out at 0.023 mg/kg. Further, in data set [3], the LD50 at 168 h was more than 800 mg/kg.

With `CN(C)CCCN1c2ccccc2CCc2ccccc21` [imipramine, reference compound], the ED50 in data set [1] (gavage 1 h before reserpine 1.5 mg/kg i.p., scored 2 h after reserpine, male mice) came to 3.1 mg/kg; in data set [2] it was 18.2 mg/kg. In addition, the “orientative acute toxicity (in words)” value in the data set on mouse was “quite higher orientative acute toxicity”.

Take `CN1C[C@H](COC2=CC(=O)CC2)C[C@@H]2c3cccc4[nH]cc(c34)C[C@H]21` [355/1228, 6-Methyl-8-[(2-cyclopentenon)-3-oxymethyl]-ergoline]: the ED50 in data set [1] was determined as 0.14 mg/kg; in data set [2] it was 0.39 mg/kg. The LD50 at 168 h in data set [3] was more than 600 mg/kg.

`CN1C[C@H](CNC2=CC(=O)CC2)C[C@@H]2c3cccc4[nH]cc(c34)C[C@H]21` [355/1206, 6-Methyl-8-[(2-cyclopentenon)-3-aminomethyl]-ergoline]: the ED50 in data set [1] came to 3.1 mg/kg; in data set [2], 7.7 mg/kg. In data set [3], the LD50 at 168 h was more than 800 mg/kg.

These data come from patent US4382940A (priority 1979, dated 1983).
